Drawing on the METLIN SMRT retention time set (Domingo-Almenara et al. 2019), this text covers RP-LC retention time for 59 molecules.

Structures are written as SMILES.

A short description of this data set: gradient 5% acetonitrile 3 min, to 50% in 2 min, to 85% in 15 min, held 3 min, 100 µL/min. The following applies: column: Zorbax Extend-C18 2.1 x 50 mm; eluents: water / acetonitrile, 0.1% formic acid. The method, boiled down:
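Pure standards were run in mixtures of ~100 molecules by HPLC coupled to a quadrupole time-of-flight mass spectrometer. The column was a Zorbax Extend-C18 (2.1 × 50 mm, 1.8 μm) at 100 μL/min, with water and acetonitrile each containing 0.1% formic acid, in positive and negative ionization mode. Dead and dwell volumes were 40 μL and 900 μL. Retention time was taken from computationally picked adduct peaks, each manually inspected, with data collected over 3 months.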
Molecule `CN(C)c1nc2cc(C(=O)N3CCCCC3)sc2n1-c1ccccc1` registered an RP-LC retention time of 679 s.

On to `O=C(N[C@@H]1CN(c2ncccn2)C[C@H]1CO)C1(c2ccccc2)CC1`, for which the RP-LC retention time was 654 s.

Molecule `CCc1ccccc1NC(=O)N1CCc2nc(-c3ccc(Cl)cc3)ncc2C1` registered an RP-LC retention time of 1160 s.

As for `O=C(Nc1cc(-c2ccccn2)no1)C1CC1`, the RP-LC retention time turned out to be 668 s.

As to `O=c1[nH]c2ccc(NCc3c(F)cccc3Cl)cc2[nH]1`, the RP-LC retention time is 636 s.

In turn, `CC(C)n1c(N2CCCN(C(=O)c3ccc(Br)o3)CC2)cc(=O)n(C(C)C)c1=O` yielded an RP-LC retention time of 866 s.

In turn, `Cc1sc(-c2nnc(C3CC3)o2)cc1NC(=O)c1ccnn1C` displayed an RP-LC retention time of 796 s.

Take `CC(C)c1ccc(-c2nc(C3CC(=O)N(c4ccc(F)c(Cl)c4)C3)no2)cc1` (centres undefined): the RP-LC retention time worked out at 1290 s.

With `CC1Oc2ccc(S(=O)(=O)N3CCC(C(=O)NCc4ccco4)CC3)cc2NC1=O` (centres undefined), the RP-LC retention time is 722 s.

`CCCOc1cccc2c1CCN(Cc1ccc(F)cc1)C2=O` gave an RP-LC retention time of 1040 s.

In turn, `NC(=O)C1CCN(C(=O)C2COC3(CCCCC3)N2C(=O)c2ccccc2)CC1` (centres undefined) returned an RP-LC retention time of 606 s.

For `O=C(NC1CCCC1)c1nc(C(=O)N2CCN(c3ccccc3)CC2)cs1`, the RP-LC retention time was found to be 897 s.

Take `O=C(Cn1nc(Cc2cccnc2)c2ccccc2c1=O)N1CCN(C(=O)c2ccco2)CC1`: the RP-LC retention time stood at 578 s.

`O=C(CC1CCN(C(=O)C2(c3ccccc3)CC2)C1)NC1CC1` (centres undefined) returned an RP-LC retention time of 666 s.

`O=C(NCCc1c[nH]c2ccc(F)cc12)c1cn(-c2ccc(F)cc2)nn1` showed an RP-LC retention time of 914 s.

On to `CCOc1ccc(Cc2nnc(SCC(=O)c3ccc(OC)cc3)o2)cc1`, for which the RP-LC retention time worked out at 938 s.

`CCCn1c(=O)sc2cc(S(=O)(=O)N3CCC(C(=O)N(C)Cc4ccccc4)CC3)ccc21`: the RP-LC retention time was 985 s.

`CCCNc1cc(N2CCC(CCC(=O)NCC)CC2)ncn1`: the RP-LC retention time stood at 595 s.

As for `CN(C)CCNC(=O)c1ccc(Nc2c(-c3ccccc3)nc3cnccn23)cc1`, the RP-LC retention time came out at 586 s.

For the molecule `O=C(Cn1cccc1-c1nc(-c2ccc3c(c2)OCO3)no1)NCc1ccco1`, the RP-LC retention time came to 906 s.

Regarding `CC(C)NC(=O)N1CC[C@H](n2c(=O)n(C)c3cccnc32)C1`, the RP-LC retention time amounted to 632 s.

For the molecule `CSc1cccc(NC(=O)N2CCc3c(c(-c4nc(C5CC5)no4)nn3C)C2)c1`, the RP-LC retention time was 883 s.

Turning to `CCN1CCN(c2ccc(-c3ccc(OC)c(S(=O)(=O)N4CCOCC4)c3)nn2)CC1`, the RP-LC retention time worked out at 585 s.

As for `O=C(CN1CCN(c2ccc(F)c(F)c2)C1=O)NC1CCS(=O)(=O)C1` (centres undefined), the RP-LC retention time amounted to 636 s.

The molecule `CN(C[C@@H]1COCCO1)S(=O)(=O)Nc1ccc2ccc3ncc(-c4cnn(C)c4)cc3c(=O)c2c1` came in with an RP-LC retention time of 778 s.

Molecule `Cc1ccc(NC(=O)N2CCC(n3cnc4cc(Cl)ccc4c3=O)CC2)cc1C` came in with an RP-LC retention time of 911 s.

Molecule `O=C(NC1CCCCC1)C1CCN(Cc2noc(-c3ccc(F)cc3)n2)CC1` displayed an RP-LC retention time of 665 s.

Regarding `O=C(Nc1nc(-c2ccc3c(c2)OCCO3)cs1)c1cc(Cl)sc1Cl`, the RP-LC retention time amounted to 1120 s.

As for `O=C(c1cn(CC(O)c2ccccc2)nn1)N1CCN(c2ccccn2)CC1` (centres undefined), the RP-LC retention time was 544 s.

`O=C(c1cc(-c2cccc(Cl)c2)nc2ccccc12)N1CCN(c2ccccn2)CC1` had an RP-LC retention time of 766 s.

With `CC(C)(Oc1ccc(Cl)cc1)C(=O)NCCNc1cc(-n2cccn2)ncn1`, the RP-LC retention time stood at 814 s.

Molecule `COc1ccc(CCC(=O)N2CCC3(C2)C(=O)N(C)c2ccccc23)cc1` (centres undefined) had an RP-LC retention time of 872 s.

For `Cc1cccc(NC(=O)CSc2nnc3c4cc(-c5ccc(C)c(C)c5)nn4ccn23)c1`, the RP-LC retention time came to 989 s.

`COCCCNC(=O)C1(C)Cn2nc(-c3ccccc3)cc2C(=O)N1Cc1cc(OC)ccc1OC` (centres undefined) displayed an RP-LC retention time of 903 s.

Consider `CC(C)C(=O)NCc1nc(-c2ccccc2Cl)no1`, for which the RP-LC retention time amounted to 754 s.

Molecule `Cc1cc(C)n2c(Nc3c(C)cccc3C)c(-c3ccccc3)nc2n1` had an RP-LC retention time of 743 s.

`NC(=O)CSc1nnc(-c2cccc(Cl)c2)o1` had an RP-LC retention time of 696 s.

As to `Cn1nnnc1SCC(=O)N1CCC(C(=O)NCC(F)(F)F)CC1`, the RP-LC retention time was determined as 600 s.

For `Cc1cccc(-c2noc(-c3cc(N4CCN(C)CC4)nc4ccccc34)n2)c1`, the RP-LC retention time worked out at 837 s.

As to `O=C(NCC1CCN(Cc2ccccc2)CC1)C(=O)Nc1ccc(OC(F)(F)F)cc1`, the RP-LC retention time came to 626 s.

`Cc1nnc2n1CCN(C(=O)c1cc(-c3ccccc3)n[nH]1)C2`: the RP-LC retention time was 608 s.

Turning to `CCOC(=O)C1CCN(C(=O)C2CCc3nc(N(CC)CC)ncc3C2)CC1` (centres undefined), the RP-LC retention time is 630 s.

On to `COC(=O)c1ccc(NC(=O)CN2CCc3[nH]c4c(C)ccc(F)c4c(=O)c3C2)cc1`, for which the RP-LC retention time amounted to 604 s.

For `COc1ccc(CNC(=O)Cn2nc3c(N4CCSCC4)nccn3c2=O)cc1`, the RP-LC retention time is 762 s.

Molecule `Cc1nc(N)nc(N)c1-c1ccc(Cl)c(Cl)c1` had an RP-LC retention time of 642 s.

`CC(C)NC(=O)c1ccc(Nc2c(-c3ccc(Cl)cc3)nc3cnccn23)cc1` yielded an RP-LC retention time of 764 s.

In the case of `COc1cc(CN2C[C@@H]3C(=O)N(C)C(=O)[C@@H]3C2)cc(OC)c1`, the RP-LC retention time amounted to 585 s.

`COC(=O)c1ccc(C(=O)NCC2(CO)CC2)cc1` returned an RP-LC retention time of 611 s.

`CC(C)CCNC(=O)C1(C)Cn2nc(C(=O)NCCc3ccccc3)cc2C(=O)N1C` (centres undefined) yielded an RP-LC retention time of 791 s.

`Cc1ccc(C(=O)N2CC3CN(S(=O)(=O)c4cccc(F)c4)CC(C2)O3)s1` returned an RP-LC retention time of 821 s.

For the molecule `CCC(=O)N1CCc2cc(-c3ccc(C(=O)NCc4ccco4)cc3)ccc21`, the RP-LC retention time was 849 s.

In the case of `O=C1CN(S(=O)(=O)c2ccc(F)c(Cl)c2)CC2(CCOCC2)N1CC1CC1`, the RP-LC retention time is 881 s.

`COc1cccc(OC)c1OCCNCC1COc2ccccc2O1` (centres undefined) returned an RP-LC retention time of 767 s.

`CCCc1cc(N2CCN(C(=O)c3ccc(F)cc3)CC2)nc2nncn12`: the RP-LC retention time is 620 s.

Regarding `O=C(NCc1ccccc1)C1CCN(C(=O)c2ncn3c2COC(c2ccc(Cl)cc2)C3)CC1` (centres undefined), the RP-LC retention time is 760 s.

With `O=C(CCSc1ccccc1)Nc1cccc2ccc(-n3ccnc3)nc12`, the RP-LC retention time turned out to be 648 s.

In the case of `CCN1CCCn2cc(S(=O)(=O)Nc3cc(Cl)ccc3OC)cc2C1=O`, the RP-LC retention time turned out to be 794 s.

On to `CCc1noc(-c2cnc3nc(C)ccc3c2Nc2ccc3c(c2)OCO3)n1`, for which the RP-LC retention time was found to be 720 s.

For the molecule `CC(C)N1C(=O)c2cccnc2Sc2cc(NC(=O)Cc3ccsc3)ccc21`, the RP-LC retention time turned out to be 823 s.
